From patent US20260021137A1, “COMPOSITIONS FOR TREATING COLITIS AND/OR PREVENTING COLON CANCER” (Purdue Research Foundation, priority 2020, published 2026)
Marks after values point to notes of the source that are not given here.

Key:
gut microbiota = assay: Gut microbiota analysis by 16S rRNA gene sequencing of feces; type: in vivo, male Balb/c mice; conditions: for modulatory effect on gut microbes as δTE and δTE-13′: unpublished data by Liu and Jiang
Procedure: DNAs from ^˜30-40 mg fecal samples were isolated using FASTDNA™ SPIN kit for isolating DNA from soil (MP Biomedicals, Solon, Ohio). The quality of the DNAs was assessed by NanoDrop One (260/280 OD ratio) (Thermo Fisher Scientific. Weltham, Mass.) and 0.8% agarose gel electrophoresis. The DNAs were stained with Hoechst 33258 dye and quantities were determined using a NanoDrop 3300 fluorospectrometer (Thermo Fisher Scientific. Weltham, Mass.).
DNA templates (10 ng) were used for two-step polymerase chain reactions (PCRs) using Q5 High Fidelity DNA Polymerase to minimize errors (New England Biolabs, Ipswich, Mass.). The first PCR reaction is to amplify the 16S rRNA V3 and V4 region (^˜460 bp), with forward primer (343-357: 5′ TAC CGR AGG CAG CAG 3′), and a reverse primer (804-790: 5′ CTA CCR GGG TAT CTA ATCC 3′). which is based on primer accuracy and coverage of phylogenetic information that has been determined for short sequencing reads. Four degenerate bases were added to the 1st cycle forward primers to maximize detected microbial diversity and improve the base-calling accuracy of sequencing. The second PCR is to tag the amplicons with unique barcodes using 8-bp tagged forward and reverse primers (Illumina) (support.illumina.com). The number of PCR cycles were 15 in the first step and 5 in the second step to minimize formation of PCR artifacts. After each PCR, unincorporated primers and nucleotides were removed from PCR amplicons using Agencourt AMPure XP kit (Beckman Coulter). The PCR products were evaluated by 1.2% agarose gel and quantified using a NanoDrop 3300 fluorospectrometer after staining with Quantifluor dsDNA Assay Kit (Promega, Madison, Wis.). Amplicons from each sample were combined in equimolar quantities for 250 bp pair-end sequencing using a MiSeq system (Illumina, San Diego, Calif.).
The raw sequencing data were processed on the QIIME2 platform. The quality of the sequences was checked and bases with low-quality scores (Q less than 30) were trimmed. After denoising, merging and chimeric-checking using DADA2, amplicon sequence variants (ASVs) were aligned with the SILVA 132 marker gene reference database. After rarefaction, microbial alpha diversities were computed using observed OTUs, Faith Phylogenetic Diversity (PD), Piclou evenness and Shannon indices. For beta diversities, principal coordinate analysis (PCoA) was performed using Unweighted UniFrac, Weighted UniFrac, Jaccard and Bray Curtis distance matrices. Permutational (non-parametric) multivariate statistic (perMANOVA) and permutation analysis of multivariate dispersions (PERMDISP) were used to determine beta diversity significance. To identify differential abundant taxa, we performed analysis of composition of microbiomes (ANCOM) followed by Kruskal-Wallis to determine pair-wise significance. ANCOM takes into account the compositional nature of the dataset and compares absolute abundance in the community. Furthermore, we used linear discriminant analysis (LDA) effect size (LEfSe) to identify microbial taxa that are enriched by the dietary treatments. The cutoff for LDA was set at 3.5. In addition, canonical correspondence analysis (CCA) in PAST3 (Paleontological statistics) was used to determine correlation between relative abundances (at the species level) of gut microbial communities and environmental variables including AOM/DSS treatment, δTE, δTE-13′, ratio of colon length/weight (L/W) and large-size tumors. Significance of the model for the correlations was calculated using a Monte Carlo test with 999 permutations.
Tumor multiplicity and log transformed tumor area were analyzed by Kruskal-Wallis followed by Mann-Whitney test. Vitamin E and metabolites were compared using Student's t test. For cytokine data, Mann-Whitney test was used to compare two groups including AD vs. non-AD, AD vs. δTE, and AD vs. δTE-13′. PAST 3.24 was used for analysis of Spearman correlation among cytokines and multiple factors. […]

[1] = Concentrations of vitamin E forms and metabolites in plasma and feces; type: in vivo
Procedure: Vitamin E forms were extracted as previously described. Briefly, plasma tocopherols and metabolites were extracted using a mixture of methanol/hexane (1/2,v/v) in the presence of butylated hydroxytoluene (BHT; 0.8 mM) and ascorbate (0.2 mg/ml). […] The Journal of Nutritional Biochemistry. 2009;20:894-900. For fecal samples, ˜30 mg feces were smashed and homogenized in 2 ml methanol with BHT (0.8 mM) and ascorbate (0.2 mg/ml). After brief centrifugation, a 1.4 ml methanol layer was obtained and added with 200 μl of PBS, and extracted by 5 ml hexane. For plasma and fecal samples, the hexane and methanol layer were used for quantification of vitamin E forms and metabolites, respectively.
Different vitamin E forms were separated on a 150×4.6 mm, 5 μm SUPELCOSIL™ LC-18-DB column (Supelco, Bellefonte, PA), and eluted with 95/5 (v/v) methanol/0.1M lithium acetate (final 25 mM, pH 4.75) at a flow rate of 1.3 ml/min. Tocopherols and tocotrienols were monitored by coulometric detection (Model Coulochem II, ESA Inc., Chelmsford, MA) at 300 (upstream) and 500 mV (down-stream electrode) using a Model 5011 analytical cell
The detailed LC-MS/MS method for analyzing vitamin E metabolites has been previously reported. See Jiang Q, Xu T, Huang J, Jannasch AS, Cooper B, Yang C. Analysis of vitamin E metabolites including carboxychromanols and sulfated derivatives using LC/MS/MS. J Lipid Res. 2015;56:2217-25. Briefly, vitamin E metabolites were quantified based on external standards with internal standards for correction of injection and extraction. The LC-MS/MS analysis was done with an Agilent1200 liquid chromatography system coupled to an Agilent 6460 QQQ mass spectrometer equipped with a jet stream electrospray ionization (ESI) source (Santa Clara, CA). The chromatography utilized an Atlantis dC18 column (2.1×150 mm, 3 μm) from Water's Corporation (Milford, MA). Buffer A and B consisted of acetonitrile/ethanol/water (165/135/700, v/v/v) and acetonitrile/ethanol/water (539/441/20, v/v/v), respectively. The LC gradient ran at 0.3 ml/min as follows: 0-1 min, 0% B; at 30 min, 99% B; at 35 min, 99% B; at 37 min, 0% B. Negative polarity ESI was used with gas temperature of 325° C., gas flow at 10 L/min, nebulizer pressure at 30 psi, sheath gas temperature of 250° C., sheath gas flow at 7 L/min, capillary voltage at 4000V, nozzle voltage at 1500 V, and an electron multiplier voltage of −300 V. All data were evaluated with Agilent MassHunter Qualitative Analysis software, versionB.01.06.

[2] = system: AOM/DSS-induced colon tumorigenesis; conditions: 0.022% diet; previous study; cited from earlier work
[3] = Body weight, food intake and organ weight during supplementation; type: in vivo, male Balb/c mice; conditions: supplementation for more than two months
Procedure: The animal use protocol was approved by the Animal Care and Use Committee at Purdue University. After one-weck adaptation, 6-7 weck old male Balb/c mice from Harlan, (Indianapolis, IN) were i.p. injected with AOM at 9.5 mg/kg body weight. A week later, AOM-injected mice were randomized into AIN-93G (control), δTE-supplemented and δTE-13′-supplemented groups. Meanwhile, mice were given 1.5% DSS in drinking water for 1 week. The DSS cycle was repeated after a two-week interval (design outlined in FIG. 1C). During DSS treatment, we evaluated colitis severity by monitoring body weight, food intake, rectal bleeding and stool consistency. Clinical colitis scores were quantified as follows: bleeding, 0=no blood, 1=feces with blood less than 50%, 2=feces with blood more than 50% but less than 100%, and 3=feces with full blood; stool softness, 0=hard, 1=a bit soft, 2=soft, and 3=very soft.

GM-CSF = assay: Multiplex cytokine assay in colon homogenates: GM-CSF; type: in vivo, male Balb/c mice; conditions: AOM/DSS-treated mice, vs control diet
Procedure: (§1) Colon tissues were homogenized with POLYTRON® homogenizer (Kinematica AG, Switzerland) on ice in the lysis buffer consisting of 150 mM NaCl, 1 mM EDTA (pH 8.0), 20 mM Tris (pH 7.5), 0.5% Tween 20, 10 uM indomethacin (Cayman), and 1× protease inhibitor cocktail (Sigma). Protein concentrations in tissue homogenates were quantified by BCA assay. The concentrations of selected cytokines were analyzed using a Mouse Cytokine Array Proinflammatory Focused 10-Plex Discovery Assay by Eve Technologies (Calgary, AB Canada). The 10-Plex Discovery Assay includes IFNγ, IL-1β, GM-CSF, IL-2, IL-4, IL-6, IL-10, IL-12p70, MCP-1 and TNFα.
(§2) Tumor multiplicity and log transformed tumor area were analyzed by Kruskal-Wallis followed by Mann-Whitney test. Vitamin E and metabolites were compared using Student's t test. For cytokine data, Mann-Whitney test was used to compare two groups including AD vs. non-AD, AD vs. δTE, and AD vs. δTE-13′. PAST 3.24 was used for analysis of Spearman correlation among cytokines and multiple factors. For correlation analysis of gut microbiota and δTE-13′, Spearman correlation tests were performed using RStudio 1.1.456 and adjusted with Benjamini-Hochberg correction to control the false discovery rate for multiple testing. Other statistical analyses are described in figure captions.

MCP-1 = assay: Multiplex cytokine assay in colon homogenates: MCP-1; type: in vivo, male Balb/c mice; conditions: AOM/DSS-treated mice, vs control diet
Procedure: as §1, §2

[4] = system: AOM/DSS-induced colon tumorigenesis; assay: AOM/DSS-induced colon tumorigenesis in mice; type: in vivo, male Balb/c mice; conditions: AOM/DSS-treated mice; δTE/γTE (8/1) 0.035% diet or δTE-13′ 0.04% diet
Procedure: FIG. 1 illustrates (A) The chemical structures of δTE, γTE and δTE-13′; (B) Metabolism of δTE and δTE-13′; and (C) The study design of AOM/DSS model in mice-Six-seven-week old male Balb/c mice were i.p. injected with AOM at 9.5 mg/kg body weight. A week later, AOM-injected mice were randomized into AIN-93G (control), δTE-supplemented and δTE-13′-supplemented groups. Meanwhile, mice were given 1.5% DSS in drinking water for 1 week. The DSS cycle was repeated after a two-week interval.
δTE-13′ (>92%) used in animal studies was isolated from Garcinia kola seeds based on published procedures. See Jang Y, Park N Y, Rostgaard-Hansen A L, Huang J, Jiang Q. Vitamin E metabolite 13′-carboxychromanols inhibit pro-inflammatory enzymes, induce apoptosis and autophagy in human cancer cells by modulating sphingolipids and suppress colon tumor development in mice. Free Radical Biology & Medicine. 2016;95:190-9. Azoxymethane (AOM) was purchased from Sigma and dextran sodium sulfate (DSS, Mw36,000-50,000 Da) was from MP Biochemicals (Solon, OH). δTE/γTE (8/1) was a gift from American River Nutrition (Hadley, MA). AIN-93G diet was used as the control diet. […]
The animal use protocol was approved by the Animal Care and Use Committee at Purdue University. […] During DSS treatment, we evaluated colitis severity by monitoring body weight, food intake, rectal bleeding and stool consistency. Clinical colitis scores were quantified as follows: bleeding, 0=no blood, 1=feces with blood less than 50%, 2=feces with blood more than 50% but less than 100%, and 3=feces with full blood; stool softness, 0=hard, 1=a bit soft, 2=soft, and 3=very soft.
During tissue harvest, colons were removed, rinsed with cold PBS, cut open longitudinally, and macroscopically examined. The size and number of macroscopic tumors were measured and recorded. […]
Tumor multiplicity and log transformed tumor area were analyzed by Kruskal-Wallis followed by Mann-Whitney test. […]

[5] = ANCOM, compared with control diet in AD-treated or healthy mice
[6] = LEfSe, LDA cutoff 3.5, AOM/DSS-treated mice
[7] = fecal microbiota, AOM/DSS-treated mice, mean ± SEM

Structure (SMILES): Cc1c(C)c2c(c(C)c1O)CC[C@@](C)(CCC[C@H](C)CCC[C@H](C)CCCC(C)C)O2 [αT, α-tocopherol, reference compound]
- modulatory effect on gut microbes as δTE and δTE-13′ (gut microbiota): do not share the same modulatory effect

Structure (SMILES): Cc1c(O)cc2c(c1C)O[C@](C)(CCC[C@H](C)CCC[C@H](C)CCCC(C)C)CC2 [γT, γ-tocopherol, reference compound]
- modulatory effect on gut microbes as δTE and δTE-13′ (gut microbiota): do not share the same modulatory effect

Structure (SMILES): C/C(=C\CC/C(C)=C/CCC1(C)CCc2cc(O)cc(C)c2O1)CC/C=C(\C)C(=O)O (centres unmarked) [δTE-13′, δTE-13′-carboxychromanol]
- parental compound in the plasma ([1]; δTE-13′ supplementation): did not result in detectable amount
- δTE-13′ with 3 DB (the parental compound) in feces ([1]; δTE-13′ supplementation): increased
- fecal δTE-13′ with 2 DB relative to that from δTE ([1]; δTE-13′ vs δTE supplementation): significantly higher
- plasma concentrations of metabolites relative to those from δTE ([1]; δTE-13′ vs δTE supplementation): about twice as much
- AOM/DSS-associated decrease of genus Roseburia (gut microbiota; ANCOM, relative abundance): partially reversed
- relative abundance of Streptococccaceae family (gut microbiota; [5]): significantly elevated
- relative abundance of genus Lactococcus (gut microbiota; [5]): significantly elevated
- Bacteroides (LEfSe) (gut microbiota; [6]): enriched
- Parabacteroides goldsteinii CL02T12C30 (LEfSe) (gut microbiota; [6]): enriched
- ratio of Firmicutes to Bacteroidetes in feces (gut microbiota; compared with healthy controls): appeared to decrease
- alpha diversity: Evenness (gut microbiota; [7]): 0.81 ± 0.01^b
- alpha diversity: Faith PD (gut microbiota; [7]): 10.42 ± 0.24^a
- alpha diversity: Observed OTU (gut microbiota; [7]): 177.06 ± 8.75^a
- alpha diversity: Shannon (gut microbiota; [7]): 6.05 ± 0.07^a
- large-size tumor multiplicity [2]: significantly suppressed
- total tumor multiplicity [2]: significantly suppressed
- effect on animals' body weight [3]: did not affect
- effect on food intake [3]: did not affect
- effect on organ weight [3]: did not affect
- AOM/DSS-induced GM-CSF in colon homogenates (GM-CSF): significant reduction
- AOM/DSS-induced MCP-1 in colon homogenates (MCP-1): significant reduction
- decrease of large size (>2 mm^2) polyps compared with control diet [4]: 55%
- decrease of total polyps (total tumor multiplicity) compared with control diet [4]: 25%
- decrease of tumor surface area [4]: 38%
